Type in all cases: in vivo, mice
The test system of series [1] is CT26 tumors. As to the kind of experiment: CT26 subcutaneous tumor model, ER-886046 with radiation. On the procedure:
FIG. 1A to FIG. 1B. […] Panel shown in FIG. 1A) Average tumor sizes of the CT26 tumor-bearing mice that received 9 Gy radiation+ER-886046, 9 Gy radiation alone, or vehicle alone. Panel shown in FIG. 1B) Average animal body weight of the CT-26 tumor-bearing mice. Radiation treatment: 9 Gy single dose on day 9; ER-886046 dosing: 150 mg/kg, oral (po) administration daily from day 9 to day 32. Administration of radiation and ER-886046 to the tumor-bearing mice is indicated by the arrows and bars, respectively. N=10-12 per group. *, p<0.05, student t-test.
FIG. 2A to FIG. 2C. Tumor growth plots of the individual CT-26 tumors treated with radiation/ER-886046 or radiation alone. The animals are of the experiment described in FIG. 1A and FIG. 1B. Panel shown in FIG. 2A) Vehicle treatment group. Panel shown in FIG. 2C) Radiation plus ER-886046. N=10-12 per group. […] Radiation treatment: 9 Gy single dose on day 9; ER-886046 dosing: 150 mg/kg, oral (po) administration daily from day 9 to day 32. Each line represents an individual animal.
FIG. 3. Improved tumor growth suppression and animal survival by low dose radiation/ER-886046 compared with low dose radiation alone. Plots of animal survival status among indicated treatment groups. Radiation treatment: 3 Gy single dose on day 17; ER-886046 dosing: 150 mg/kg, po administration daily from days 17 to 45. […] N=10 per group. *, p<0.05; ***, p<0.001; Gehan-Breslow-Wilcoxon test.
Animal studies; In vitro cultured cancer cells were harvested and suspended in 100 μl of phosphate buffered saline at a cell concentration of 1.0×10^5 cells/ml and subcutaneously (sc) injected into the mice using a 26 g syringe on day 0. At the days post cell implantation as indicated in the figures, the mice were randomized based on the tumor size followed by treatments with radiation at 3 or 9 Gy dose per treatment, anti-PDL1 at 200 μg/mouse per intraperitoneal injection (ip), or anti-CTLA4 at 200 or 100 μg/mouse per ip injection with or without orally administration of ER-886046 at a dose of 150 mg/kg. The animals that were assigned to the treatment groups in individual study had close mean tumor weights in all groups. The tumor sizes were measured twice a week by a digital caliper (Mitutoyo Corp), and the volume was calculated using the formula (1×w^2)/2=mm^3, where 1 and w refer to the larger and smaller perpendicular dimensions collected at each measurement. Graphs of group tumor sizes (mean±SEM) and body weights (mean±SEM) versus time were plotted using software GraphPad Prism 6 (Lake Forest, Calif.). Student t-test and Gehan-Breslow-Wilcoxon test were used for statistical analysis.

Series [2] concerns CT26 tumors. Briefly: Bilateral CT26 tumor model (abscopic effect). On the procedure: FIG. 5A to FIG. 5B. Anti-tumor effect of ER-886046/radiation in a bilateral tumor model. Two similar-sized CT-26 tumors were grown in a host by injecting CT26 cells subcutaneously on both right and left flanks of Ba1B/c mice. Radiation was applied to the right flank tumor on both day 9 and day 13 as indicated by arrows in panel A. ER-886046 was administered daily po to the animals at a dose of 150 mg/kg as indicated by the bars. ER-886046 was dosed to animals from day 9 to day 27. Panel shown in FIG. 5A) Average size of the right flank tumor that received radiation and ER-886046. Panel shown in FIG. 5B) Average size of the left flank tumor that received no radiation (radiation administered only to the right flank tumor).
Abscopic effect of the combination treatment of ER-886046 and radiation in an animal model. Induction of anti-tumor immune response can be systemic and thus highly valuable for treating metastatic cancer, which has multiple lesions in one host. To mimic the large metastatic lesions in mice, we simultaneously grew CT26 tumors on both sides of an individual mouse by subcutaneously injecting cancer cells. The tumors on the right side of the mice were treated with both radiation and ER-886046. The tumors on the left side of the mice received ER-886046 only.

In the next series the test system is 4T1-luc2 tumors. Briefly: Spontaneous lung metastasis in 4T1-luc2 breast tumor model. To be noted: ER-886046 150 mg/kg po daily days 9-27 + single radiation 9 Gy; day 27. On the procedure:
FIG. 6A to FIG. 6B. Anti-pulmonary metastasis activity of ER-886046/radiation in breast 4T1 tumor model. 4T1-luc2 cells were subcutaneously (sc) inoculated into the Ba1B/c mice. When the average size of tumors reached 100 mm^3, the tumors were radiated with a dose of 9 Gy once with or without daily oral administration of ER-886046 at dose of 150 mg/kg. Panel shown in FIG. 6A) At the end of study on day 27, lung metastasis of the animals was analyzed and quantified by luciferase expression. Panel shown in FIG. 6B) Representative IVIS images of each group are shown. Student t-test was used for statistic analysis.
In case of tumor rechallenge of tumor-free mice after treatments, CT26 cells and 4T1 cells were individually sc injected into the different flanks of the same mouse, and the growth of each tumor was measured and graphed as described above. […] At the end of study on day 27, the mice in all treatment groups were intranasally administered luciferin and the lungs were resected and analysed for luciferase expression using IVIS instrument. Quantification of the luciferase activity in the lungs was achieved by software Living Image.
Anti-spontaneous metastatic effect of ER-886046 and radiation combination therapy. […] At day 27, the mice in all treatment groups were intranasally administered luciferin and the lungs were resected and analyzed for luciferase expression.

Setting [3] is: ER-886046 150 mg/kg po daily day 9-32 + radiation 9 Gy single dose day 9.

The source of these data is patent publication US11707448B2, “Combination therapies for the treatment of cancer” (Eisai R&D Management Co., Ltd., priority 2014, dated 2023).

With `C[C@H](NC(=O)c1c(C(F)F)nn(C)c1Oc1cccc(C(F)(F)F)c1)c1ccc(C(=O)O)cc1` [ER-886046], in the series on CT26 tumors [1] (ER-886046 150 mg/kg po daily added to 9 Gy radiation), the “gross health and animal body weight compared to radiation alone” value was “did not impact the gross health and animal body weight”. Also, the “tumors with fast progression” value with CT26 tumors [1] (ER-886046 150 mg/kg po daily day 9-32 + radiation 9 Gy) was 1 out of 12. Moreover, in the series with CT26 tumors [1] (setting [3]), the “anti-tumor activity compared to radiation alone” value is listed as “statistically significantly improved” and the “tumor growth (average tumor size)” value is given as “sustained tumor growth inhibition until the end of the study on day 49”. The “cure (complete tumor regression)” value with CT26 tumors [1] (ER-886046 150 mg/kg po daily day 9-32 + radiation 9 Gy, end of study) is 9 out of 12. In addition, in the series on CT26 tumors [1] (ER-886046 150 mg/kg po daily days 17-45 + low dose radiation 3 Gy single dose day 17, vs vehicle or radiation alone), the animal survival entry is “significantly increased the animal survival”. Besides, in the series on CT26 tumors [1] (cured by ER-886046 + radiation, followed for an additional 2 months), the “tumor recurrence in the 9 tumor-free mice” value was “no tumor recurrence”. The “growth of right side tumor (radiated)” value in the series on CT26 tumors [2] (ER-886046 150 mg/kg po daily day 9-27 + radiation of right flank tumor day 9 and 13, vs radiation alone or ER-886046 alone) is listed as “better tumor growth suppression”. Moreover, in the series on CT26 tumors [2] (ER-886046 150 mg/kg po daily day 9-27, radiation only to right flank tumor, vs no ER-886046 treatment), the “growth of left side tumor (not radiated)” value is given as “significantly reduced tumor growth rate”. In addition, the “luciferase expression in lungs (lung metastasis)” value with 4T1-luc2 tumors was “significant reduction”.
